Experimental data from the NIST ThermoML archive (doi:10.1021/acs.jced.6b00657).

Experiment: xn = mol fraction of the nth substance listed
Settings: Liquid, absorption in thin film, x2 = 0

CCCCCCCCn1cc[n+](C)c1.N#CC(=C=[N-])C#N [1-methyl-3-octylimidazolium tricyanomethanide] + O=C=O
binary diffusion coefficient (298.15 K, 94 kPa): 1.5e-10 m2/s | binary diffusion coefficient (298.15 K, 194 kPa): 1.9e-10 m2/s | binary diffusion coefficient (298.15 K, 293 kPa): 1.8e-10 m2/s | binary diffusion coefficient (298.15 K, 393 kPa): 2e-10 m2/s | binary diffusion coefficient (298.15 K, 593 kPa): 2e-10 m2/s | binary diffusion coefficient (308.15 K, 194 kPa): 2.3e-10 m2/s | binary diffusion coefficient (308.15 K, 294 kPa): 2.4e-10 m2/s | binary diffusion coefficient (308.15 K, 393 kPa): 2.5e-10 m2/s | binary diffusion coefficient (308.15 K, 493 kPa): 2.5e-10 m2/s | binary diffusion coefficient (308.15 K, 593 kPa): 2.5e-10 m2/s | binary diffusion coefficient (308.15 K, 693 kPa): 2.7e-10 m2/s | binary diffusion coefficient (308.15 K, 793 kPa): 2.7e-10 m2/s | binary diffusion coefficient (308.15 K, 893 kPa): 3e-10 m2/s | binary diffusion coefficient (308.15 K, 992 kPa): 3.1e-10 m2/s | binary diffusion coefficient (308.15 K, 1093 kPa): 2.7e-10 m2/s | binary diffusion coefficient (308.15 K, 1193 kPa): 2.5e-10 m2/s | binary diffusion coefficient (308.15 K, 1293 kPa): 3.2e-10 m2/s | binary diffusion coefficient (308.15 K, 1392 kPa): 3.3e-10 m2/s | binary diffusion coefficient (308.15 K, 1492 kPa): 3.5e-10 m2/s | binary diffusion coefficient (308.15 K, 1593 kPa): 3.4e-10 m2/s | binary diffusion coefficient (308.15 K, 1693 kPa): 3.8e-10 m2/s | binary diffusion coefficient (308.15 K, 1793 kPa): 4e-10 m2/s | binary diffusion coefficient (308.15 K, 1892 kPa): 3.9e-10 m2/s | binary diffusion coefficient (308.15 K, 1993 kPa): 3.9e-10 m2/s | binary diffusion coefficient (323.15 K, 94 kPa): 3.2e-10 m2/s | binary diffusion coefficient (323.15 K, 194 kPa): 3.4e-10 m2/s | binary diffusion coefficient (323.15 K, 293 kPa): 3.5e-10 m2/s | binary diffusion coefficient (323.15 K, 393 kPa): 3.3e-10 m2/s | binary diffusion coefficient (323.15 K, 493 kPa): 3.3e-10 m2/s | binary diffusion coefficient (323.15 K, 593 kPa): 3.6e-10 m2/s | binary diffusion coefficient (323.15 K, 693 kPa): 3.9e-10 m2/s | binary diffusion coefficient (323.15 K, 793 kPa): 4e-10 m2/s | binary diffusion coefficient (323.15 K, 893 kPa): 3.9e-10 m2/s | binary diffusion coefficient (323.15 K, 992 kPa): 3.9e-10 m2/s | binary diffusion coefficient (323.15 K, 1093 kPa): 3.8e-10 m2/s | binary diffusion coefficient (323.15 K, 1193 kPa): 3.6e-10 m2/s | binary diffusion coefficient (323.15 K, 1292 kPa): 3.9e-10 m2/s | binary diffusion coefficient (323.15 K, 1393 kPa): 4e-10 m2/s | binary diffusion coefficient (323.15 K, 1493 kPa): 4.2e-10 m2/s | binary diffusion coefficient (323.15 K, 1593 kPa): 4.1e-10 m2/s | binary diffusion coefficient (323.15 K, 1692 kPa): 4.6e-10 m2/s | binary diffusion coefficient (323.15 K, 1793 kPa): 3.9e-10 m2/s | binary diffusion coefficient (323.15 K, 1892 kPa): 4.5e-10 m2/s | binary diffusion coefficient (323.15 K, 1993 kPa): 4.4e-10 m2/s | binary diffusion coefficient (338.25 K, 94 kPa): 4.3e-10 m2/s | binary diffusion coefficient (338.25 K, 194 kPa): 4.1e-10 m2/s | binary diffusion coefficient (338.25 K, 294 kPa): 4.5e-10 m2/s | binary diffusion coefficient (338.25 K, 394 kPa): 4.4e-10 m2/s | binary diffusion coefficient (338.25 K, 494 kPa): 4.2e-10 m2/s | binary diffusion coefficient (338.25 K, 593 kPa): 4.8e-10 m2/s | binary diffusion coefficient (338.25 K, 692 kPa): 4.3e-10 m2/s | binary diffusion coefficient (338.25 K, 794 kPa): 4.7e-10 m2/s | binary diffusion coefficient (338.25 K, 892 kPa): 4.2e-10 m2/s | binary diffusion coefficient (338.25 K, 993 kPa): 3.8e-10 m2/s | binary diffusion coefficient (338.25 K, 1093 kPa): 5e-10 m2/s | binary diffusion coefficient (338.25 K, 1193 kPa): 5.1e-10 m2/s | binary diffusion coefficient (338.25 K, 1292 kPa): 5e-10 m2/s | binary diffusion coefficient (338.25 K, 1392 kPa): 4.9e-10 m2/s | binary diffusion coefficient (338.25 K, 1493 kPa): 5e-10 m2/s | binary diffusion coefficient (338.25 K, 1692 kPa): 6e-10 m2/s | binary diffusion coefficient (338.25 K, 1793 kPa): 5.9e-10 m2/s | binary diffusion coefficient (338.25 K, 1892 kPa): 5.5e-10 m2/s | binary diffusion coefficient (338.25 K, 1993 kPa): 5.2e-10 m2/s | binary diffusion coefficient (353.25 K, 494 kPa): 5.7e-10 m2/s | binary diffusion coefficient (353.25 K, 594 kPa): 5.5e-10 m2/s | binary diffusion coefficient (353.25 K, 993 kPa): 6e-10 m2/s | binary diffusion coefficient (353.25 K, 1093 kPa): 6.7e-10 m2/s | binary diffusion coefficient (353.25 K, 1193 kPa): 5.1e-10 m2/s | binary diffusion coefficient (353.25 K, 1293 kPa): 4.7e-10 m2/s | binary diffusion coefficient (353.25 K, 1392 kPa): 6.5e-10 m2/s | binary diffusion coefficient (353.25 K, 1493 kPa): 5.6e-10 m2/s | binary diffusion coefficient (353.25 K, 1793 kPa): 7.6e-10 m2/s | binary diffusion coefficient (353.25 K, 1893 kPa): 5.8e-10 m2/s

CCCCCC[n+]1ccn(C)c1.N#C[C-](C#N)C#N [3-hexyl-1-methylimidazolium tricyanomethanide] + O=C=O
binary diffusion coefficient (298.15 K, 94 kPa): 2e-10 m2/s | binary diffusion coefficient (298.15 K, 194 kPa): 1.8e-10 m2/s | binary diffusion coefficient (298.15 K, 293 kPa): 1.8e-10 m2/s | binary diffusion coefficient (298.15 K, 393 kPa): 2e-10 m2/s | binary diffusion coefficient (298.15 K, 493 kPa): 2e-10 m2/s | binary diffusion coefficient (298.15 K, 693 kPa): 2.4e-10 m2/s | binary diffusion coefficient (298.15 K, 793 kPa): 2.4e-10 m2/s | binary diffusion coefficient (298.15 K, 893 kPa): 2.4e-10 m2/s | binary diffusion coefficient (298.15 K, 993 kPa): 2.2e-10 m2/s | binary diffusion coefficient (298.15 K, 1193 kPa): 3e-10 m2/s | binary diffusion coefficient (298.15 K, 1293 kPa): 3.2e-10 m2/s | binary diffusion coefficient (298.15 K, 1393 kPa): 2.9e-10 m2/s | binary diffusion coefficient (298.15 K, 1493 kPa): 3e-10 m2/s | binary diffusion coefficient (298.15 K, 1693 kPa): 3.1e-10 m2/s | binary diffusion coefficient (298.15 K, 1793 kPa): 3.3e-10 m2/s | binary diffusion coefficient (308.15 K, 101 kPa): 2.6e-10 m2/s | binary diffusion coefficient (308.15 K, 198 kPa): 2.4e-10 m2/s | binary diffusion coefficient (308.15 K, 297 kPa): 2.5e-10 m2/s | binary diffusion coefficient (308.15 K, 394 kPa): 2.5e-10 m2/s | binary diffusion coefficient (308.15 K, 494 kPa): 2.5e-10 m2/s | binary diffusion coefficient (308.15 K, 593 kPa): 2.5e-10 m2/s | binary diffusion coefficient (308.15 K, 692 kPa): 2.7e-10 m2/s | binary diffusion coefficient (308.15 K, 793 kPa): 2.2e-10 m2/s | binary diffusion coefficient (308.15 K, 892 kPa): 3.3e-10 m2/s | binary diffusion coefficient (308.15 K, 993 kPa): 2.9e-10 m2/s | binary diffusion coefficient (308.15 K, 1093 kPa): 3.1e-10 m2/s | binary diffusion coefficient (308.15 K, 1192 kPa): 3.3e-10 m2/s | binary diffusion coefficient (308.15 K, 1292 kPa): 3.3e-10 m2/s | binary diffusion coefficient (308.15 K, 1393 kPa): 3.4e-10 m2/s | binary diffusion coefficient (308.15 K, 1492 kPa): 3.4e-10 m2/s | binary diffusion coefficient (308.15 K, 1592 kPa): 4e-10 m2/s | binary diffusion coefficient (308.15 K, 1693 kPa): 3.8e-10 m2/s | binary diffusion coefficient (308.15 K, 1793 kPa): 4.1e-10 m2/s | binary diffusion coefficient (308.15 K, 1893 kPa): 4e-10 m2/s | binary diffusion coefficient (308.15 K, 1993 kPa): 4.1e-10 m2/s | binary diffusion coefficient (323.15 K, 94 kPa): 2.8e-10 m2/s | binary diffusion coefficient (323.15 K, 194 kPa): 4.1e-10 m2/s | binary diffusion coefficient (323.15 K, 293 kPa): 3.1e-10 m2/s | binary diffusion coefficient (323.15 K, 393 kPa): 3.5e-10 m2/s | binary diffusion coefficient (323.15 K, 493 kPa): 3.9e-10 m2/s | binary diffusion coefficient (323.15 K, 594 kPa): 4.2e-10 m2/s | binary diffusion coefficient (323.15 K, 693 kPa): 3.7e-10 m2/s | binary diffusion coefficient (323.15 K, 793 kPa): 3.7e-10 m2/s | binary diffusion coefficient (323.15 K, 893 kPa): 3.9e-10 m2/s | binary diffusion coefficient (323.15 K, 993 kPa): 4e-10 m2/s | binary diffusion coefficient (323.15 K, 1093 kPa): 3.8e-10 m2/s | binary diffusion coefficient (323.15 K, 1193 kPa): 4e-10 m2/s | binary diffusion coefficient (323.15 K, 1293 kPa): 4e-10 m2/s | binary diffusion coefficient (323.15 K, 1393 kPa): 4.4e-10 m2/s | binary diffusion coefficient (323.15 K, 1493 kPa): 4.3e-10 m2/s | binary diffusion coefficient (323.15 K, 1593 kPa): 4.2e-10 m2/s | binary diffusion coefficient (323.15 K, 1693 kPa): 4.7e-10 m2/s | binary diffusion coefficient (323.15 K, 1793 kPa): 4.5e-10 m2/s | binary diffusion coefficient (323.15 K, 1893 kPa): 3.7e-10 m2/s | binary diffusion coefficient (323.15 K, 1993 kPa): 5.4e-10 m2/s | binary diffusion coefficient (338.25 K, 194 kPa): 5.1e-10 m2/s | binary diffusion coefficient (338.25 K, 294 kPa): 3.7e-10 m2/s | binary diffusion coefficient (338.25 K, 393 kPa): 4.9e-10 m2/s | binary diffusion coefficient (338.25 K, 494 kPa): 6.7e-10 m2/s | binary diffusion coefficient (338.25 K, 693 kPa): 4.9e-10 m2/s | binary diffusion coefficient (338.25 K, 793 kPa): 4.8e-10 m2/s | binary diffusion coefficient (338.25 K, 893 kPa): 5.8e-10 m2/s | binary diffusion coefficient (338.25 K, 993 kPa): 5.3e-10 m2/s | binary diffusion coefficient (338.25 K, 1092 kPa): 5.3e-10 m2/s | binary diffusion coefficient (338.25 K, 1193 kPa): 5.3e-10 m2/s | binary diffusion coefficient (338.25 K, 1292 kPa): 5.6e-10 m2/s | binary diffusion coefficient (338.25 K, 1393 kPa): 4.8e-10 m2/s | binary diffusion coefficient (338.25 K, 1493 kPa): 5.5e-10 m2/s | binary diffusion coefficient (338.25 K, 1592 kPa): 4.9e-10 m2/s | binary diffusion coefficient (338.25 K, 1693 kPa): 6.6e-10 m2/s | binary diffusion coefficient (338.25 K, 1792 kPa): 6e-10 m2/s | binary diffusion coefficient (338.25 K, 1893 kPa): 6.1e-10 m2/s | binary diffusion coefficient (338.25 K, 1993 kPa): 6.3e-10 m2/s | binary diffusion coefficient (353.25 K, 594 kPa): 6.4e-10 m2/s | binary diffusion coefficient (353.25 K, 694 kPa): 7.1e-10 m2/s | binary diffusion coefficient (353.25 K, 893 kPa): 6e-10 m2/s | binary diffusion coefficient (353.25 K, 993 kPa): 6.5e-10 m2/s | binary diffusion coefficient (353.25 K, 1193 kPa): 6.3e-10 m2/s | binary diffusion coefficient (353.25 K, 1293 kPa): 6.8e-10 m2/s | binary diffusion coefficient (353.25 K, 1393 kPa): 6.3e-10 m2/s | binary diffusion coefficient (353.25 K, 1593 kPa): 5.3e-10 m2/s | binary diffusion coefficient (353.25 K, 1693 kPa): 7.6e-10 m2/s | binary diffusion coefficient (353.25 K, 1793 kPa): 7.7e-10 m2/s | binary diffusion coefficient (353.25 K, 1893 kPa): 7.7e-10 m2/s | binary diffusion coefficient (353.25 K, 1993 kPa): 6.7e-10 m2/s
